Reference: patent US5491155A, “Substituted thiadiazoles, compositions containing them and their use as antimicrobial and marine antifouling agents” (The Dow Chemical Company, priority 1994, dated 1996)
Converted amounts (≈) assume the structure as drawn. Where two headings read alike, the source gives them in different places.

Columns and labels:
Staphylococcus aureus = test: MIC in nutrient agar, Staphylococcus aureus; format: cell-based, Staphylococcus aureus (ATCC 6538); details: Sa, 48 hours, read-out: Minimum Inhibitory Concentration (MIC)
Protocol: (§1) The minimum inhibitory concentration (MIC) for the compounds listed in Table I is determined for bacteria, using nutrient agar, and 7 yeast and fungi, using malt yeast agar. A one percent solution of the test compound is prepared in a mixture of acetone and water.
(§2) Nutrient agar is prepared at pH 6.8, representing a neutral medium, and at pH 8.2, representing an alkaline medium. The nutrient agars are prepared by adding 23 g of nutrient agar to one-liter of deionized water. In addition, the alkaline medium is prepared by adjusting a 0.04M solution of N-(tris-(hydroxymethyl)methyl)glycine buffered deionized water with concentrated sodium hydroxide to a pH of 8.5.
(§3) The test tubes containing the agar are cooled in a water bath until the temperature of the agar is 48° C. Then, an appropriate amount of the one percent solution of the test compound is added (except in the controls where no compound is added) to the respective test tubes so that the final concentrations are 500, 250, 100, 50, 25, 10, 2.5, 1.0 and zero parts per million of the test compound in the agar, thus having a known concentration of test compound dispersed therein. The contents of the test tubes are then transferred to respective petri plates. After drying for 24 hours, the petri plates containing nutrient agar are inoculated with bacteria and those containing malt yeast agar are inoculated with yeast and fungi.
(§4) The inoculation with bacteria is accomplished by using the following procedure. Twenty-four hour-cultures of each of the bacteria are prepared by incubating the respective bacteria in tubes containing nutrient broth for 24 hours at 30° C. in a shaker. Dilutions of each of the 24 hour-cultures are made so that nine separate suspensions (one for each of the nine test bacteria) are made, each containing 10^8 colony forming units (CFU) per mL of suspension of a particular bacteria. Aliquots of 0.3 mL of each of the bacterial suspensions are used to fill the individual wells of Steer's Replicator. For each microbial suspension, 0.3 mL was used to fill three wells (i.e., three wells of 0.3 mL each) so that for the nine different bacteria, 27 wells are filled. The Steer's Replicator is then used to inoculate both the neutral and alkaline pH nutrient agar petri plates.
(§5) The inoculated petri plates are incubated at 30° C. for 48 hours and then read to determine if the test compound which is incorporated into the agar prevented growth of the respective bacteria.
(§6) Table II lists the bacteria, yeast and fungi used in the MIC test described above along with their respective American Type Culture Collection (ATCC) identification numbers.
(§7) In Tables III and IV, the MIC values of the compounds described in Table I as compared to the MIC of a standard commercial preservative (with 1-(3-chloroalkyl)-3,5,7-triaza-1-azoniaadamantane chloride as the active agent and referred to in Tables III and IV as "STANDARD I") are set forth for the bacteria organisms and yeast/fungi organisms which are listed in Table II.

[1] = tested on: Pseudomonas aeruginosa (PRD-10); test: MIC in nutrient agar, Pseudomonas aeruginosa (PRD-10); format: cell-based, Pseudomonas aeruginosa (ATCC 15442); details: PRD, 48 hours, read-out: Minimum Inhibitory Concentration (MIC)
Protocol: as §1, §2, §3, §4, §5, §6, §7

Proteus vulgaris = test: MIC in nutrient agar, Proteus vulgaris; format: cell-based, Proteus vulgaris (ATCC 881); details: Pv, 48 hours, read-out: Minimum Inhibitory Concentration (MIC)
Protocol: as §1, §2, §3, §4, §5, §6, §7

Aureobasidium pullulan = test: MIC in malt yeast agar, Aureobasidium pullulan; format: cell-based, Aureobasidium pullulan (ATCC 16622); details: Ap; malt yeast agar; 30° C.; 72 hours for fungi; read-out: Minimum Inhibitory Concentration (MIC)
Protocol: as §1
(§8) Malt yeast agar is prepared by adding 3 g yeast extract and 45 g malt agar per liter of deionized water. The specific agar is dispensed in 30 mL aliquots into 25×200 mm test tubes, capped and autoclaved for 15 minutes at 115° C.
as §3
(§9) The inoculation with the yeast and fungi is accomplished as follows. Cultures of yeast and fungi are incubated for seven days on malt yeast agar at 30° C. These cultures are used to prepare suspensions by the following procedure. A suspension of each organism is prepared by adding 10 mL of sterile saline and 10 microliters of octylphenoxy polyethoxy ethanol to the agar slant of yeast or fungi. The sterile saline/octylphenoxy polyethoxy ethanol solution is then agitated with a sterile swab to suspend the microorganism grown on the slant. Each resulting suspension is diluted into sterile saline (1 part suspension: 9 parts sterile saline). Aliquots of these dilutions are placed in individual wells of Steer's Replicator and petri plates inoculated as previously described. The petri plates are incubated at 30° C. and read after 48 hours for yeast and 72 hours for fungi.
as §6, §7

Bacillus subtilis = test: MIC in nutrient agar, Bacillus subtilis; format: cell-based, Bacillus subtilis (ATCC 8473); details: Bs, 48 hours, read-out: Minimum Inhibitory Concentration (MIC)
Protocol: as §1, §2, §3, §4, §5, §6, §7

Trichoderma viride = test: MIC in malt yeast agar, Trichoderma viride; format: cell-based, Trichoderma viride (ATCC 8678); details: Tv; malt yeast agar; 30° C.; 72 hours for fungi; read-out: Minimum Inhibitory Concentration (MIC)
Protocol: as §1, §8, §3, §9, §6, §7

Penicillium chrysogenum = test: MIC in malt yeast agar, Penicillium chrysogenum; format: cell-based, Penicillium chrysogenum (ATCC 9480); details: Pc; malt yeast agar; 30° C.; 72 hours for fungi; read-out: Minimum Inhibitory Concentration (MIC)
Protocol: as §1, §8, §3, §9, §6, §7

Saccharomyces cerevisiae = test: MIC in malt yeast agar, Saccharomyces cerevisiae; format: cell-based, Saccharomyces cerevisiae (ATCC 4105); details: Sc, malt yeast agar, 30° C., 48 hours for yeast, read-out: Minimum Inhibitory Concentration (MIC)
Protocol: as §1, §8, §3, §9, §6, §7

Pseudomonas aeruginosa = test: MIC in nutrient agar, Pseudomonas aeruginosa (Pa); format: cell-based, Pseudomonas aeruginosa (ATCC 10145); details: Pa, 48 hours, read-out: Minimum Inhibitory Concentration (MIC)
Protocol: as §1, §2, §3, §4, §5, §6, §7

Salmonella choleraesuis = test: MIC in nutrient agar, Salmonella choleraesuis; format: cell-based, Salmonella choleraesuis (ATCC 10708); details: Salmonella enterica, Sc, 48 hours, read-out: Minimum Inhibitory Concentration (MIC)
Protocol: as §1, §2, §3, §4, §5, §6, §7

Candida albicans = test: MIC in malt yeast agar, Candida albicans; format: cell-based, Candida albicans (ATCC 10231); details: Ca; malt yeast agar; 30° C.; 48 hours for yeast; read-out: Minimum Inhibitory Concentration (MIC)
Protocol: as §1, §8, §3, §9, §6, §7

Enterobacter aerogenes = test: MIC in nutrient agar, Enterobacter aerogenes; format: cell-based, Enterobacter aerogenes (ATCC 13048); details: Klebsiella aerogenes, Ea, 30° C., 48 hours, read-out: Minimum Inhibitory Concentration (MIC)
Protocol: as §1, §2, §3, §4, §5, §6, §7

Fusarium oxysporum = test: MIC in malt yeast agar, Fusarium oxysporum; format: cell-based, Fusarium oxysporum (ATCC 48112); details: Fo; malt yeast agar; 30° C.; 72 hours for fungi; read-out: Minimum Inhibitory Concentration (MIC)
Protocol: as §1, §8, §3, §9, §6, §7

Escherichia coli = test: MIC in nutrient agar, Escherichia coli; format: cell-based, Escherichia coli (ATCC 11229); details: Ec, 48 hours, read-out: Minimum Inhibitory Concentration (MIC)
Protocol: as §1, §2, §3, §4, §5, §6, §7

Aspergillus niger = test: MIC in malt yeast agar, Aspergillus niger; format: cell-based, Aspergillus niger (ATCC 16404); details: An; malt yeast agar; 30° C.; 72 hours for fungi; read-out: Minimum Inhibitory Concentration (MIC)
Protocol: as §1, §8, §3, §9, §6, §7

Klebsiella pneumonias = test: MIC in nutrient agar, Klebsiella pneumonias; format: cell-based, Klebsiella pneumonias (ATCC 8308); details: Kp, 48 hours, read-out: Minimum Inhibitory Concentration (MIC)
Protocol: as §1, §2, §3, §4, §5, §6, §7

SMILES | MIC (Staphylococcus aureus; pH 6.8, 30° C.) [µg/mL] | MIC (Staphylococcus aureus; pH 8.2, 30° C.) [µg/mL] | MIC ([1]; pH 6.8, 30° C.) [µg/mL] | MIC ([1]; pH 8.2, 30° C.) [µg/mL] | MIC (Proteus vulgaris; pH 6.8, 30° C.) [µg/mL] | MIC (Proteus vulgaris; pH 8.2, 30° C.) [µg/mL] | MIC (Aureobasidium pullulan) [µg/mL] | MIC (Bacillus subtilis; pH 6.8, 30° C.) [µg/mL] | MIC (Bacillus subtilis; pH 8.2, 30° C.) [µg/mL] | MIC (Trichoderma viride) [µg/mL] | MIC (Penicillium chrysogenum) [µg/mL] | MIC (Saccharomyces cerevisiae) [µg/mL] | MIC (Pseudomonas aeruginosa; pH 6.8, 30° C.) [µg/mL] | MIC (Salmonella choleraesuis; pH 6.8, 30° C.) [µg/mL] | MIC (Candida albicans) [µg/mL] | MIC (Enterobacter aerogenes; pH 6.8) [µg/mL] | MIC (Fusarium oxysporum) [µg/mL] | MIC (Escherichia coli; pH 6.8, 30° C.) [µg/mL] | MIC (Aspergillus niger) [µg/mL] | MIC (Klebsiella pneumonias; pH 6.8, 30° C.) [µg/mL] | other results
N#CSCOc1nsnc1Cl [Example 6, 4-Chloro-3-thiocyanato-methyloxo-1,2,5-thiadiazole] | 25 (≈ 120 µM) | 25 (≈ 120 µM) | 100 (≈ 482 µM) | 100 (≈ 482 µM) | < 10 | 25 (≈ 120 µM) | < 10 | < 10 | 25 (≈ 120 µM) | 25 (≈ 120 µM) | < 10 | < 10 | 50 (≈ 241 µM) | < 10 | < 10 | 50 (≈ 241 µM) | < 10 | 25 (≈ 120 µM) | < 10 | 25 (≈ 120 µM) | MIC (Pseudomonas aeruginosa; pH 8.2, 30° C.): 50 µg/mL (≈ 241 µM); MIC (Salmonella choleraesuis; pH 8.2, 30° C.): 25 µg/mL (≈ 120 µM); MIC (Enterobacter aerogenes; pH 8.2): 50 µg/mL (≈ 241 µM); MIC (Escherichia coli; pH 8.2, 30° C.): 25 µg/mL (≈ 120 µM); MIC (Klebsiella pneumonias; pH 8.2, 30° C.): 25 µg/mL (≈ 120 µM)
COc1nsnc1OCSC#N [Example 7, 4-Methoxy-3-thiocyanato-methyloxo-1,2,5-thiadiazole] | < 10 | – | 25 (≈ 123 µM) | – | < 10 | – | < 10 | < 10 | – | 25 (≈ 123 µM) | < 10 | < 10 | < 10 | 25 (≈ 123 µM) | 25 (≈ 123 µM) | 25 (≈ 123 µM) | < 10 | 25 (≈ 123 µM) | < 10 | < 10 | –
N#CSCOc1nsnc1OCSC#N [Example 8, 3,4-Bis(thiocyanato-methyloxo)-1,2,5-thiadiazole] | 25 (≈ 96 µM) | 25 (≈ 96 µM) | 500 (≈ 1920 µM) | 250 (≈ 960 µM) | 25 (≈ 96 µM) | 25 (≈ 96 µM) | < 10 | < 10 | 25 (≈ 96 µM) | 50 (≈ 192 µM) | < 10 | 25 (≈ 96 µM) | 250 (≈ 960 µM) | 25 (≈ 96 µM) | 50 (≈ 192 µM) | 250 (≈ 960 µM) | 25 (≈ 96 µM) | 50 (≈ 192 µM) | < 10 | 100 (≈ 384 µM) | MIC (Pseudomonas aeruginosa; pH 8.2, 30° C.): 100 µg/mL (≈ 384 µM); MIC (Salmonella choleraesuis; pH 8.2, 30° C.): 50 µg/mL (≈ 192 µM); MIC (Enterobacter aerogenes; pH 8.2): 250 µg/mL (≈ 960 µM); MIC (Escherichia coli; pH 8.2, 30° C.): 100 µg/mL (≈ 384 µM); MIC (Klebsiella pneumonias; pH 8.2, 30° C.): 50 µg/mL (≈ 192 µM)
